Values quoted from earlier work as cited in patent publication US20240238452A1, “STAINING AGENT FOR GASTROINTESTINAL MUCOSA AND PREPARATION METHOD THEREFOR” (BEIJING COMPONT MEDICAL DEVICES CO., LTD., priority 2023, published 2024).

Columns and labels:
[1] = International Journal of Toxicology 2010
[2] = EFSA report 2009

## Cc1ccc(Nc2ccc(O)c3c2C(=O)c2ccccc2C3=O)c(S(=O)(=O)[O-])c1.[Na+] [acid violet 43]
[1]
  safety: acute oral, short-term skin, subchronic skin, heredity and other aspects: no abnormal report

## COc1cc(S(=O)(=O)[O-])c(C)cc1N=Nc1c(O)ccc2cc(S(=O)(=O)[O-])ccc12.[Na+].[Na+] [allure red]
[2]
  allowable daily intake (ADI): 7 mg/kg·bw/day

## O=C1/C(=C2\Nc3ccc(S(=O)(=O)[O-])cc3C2=O)Nc2ccc(S(=O)(=O)[O-])cc21.[Na+].[Na+] [indigo carmine, reference compound]
[2]
  allowable daily intake (ADI): 5 mg/kg·bw/day
